Values quoted from earlier work as cited in patent US6376531B1, “Method of treatment using deuterium compounds” (priority 1998, dated 2002).

Columns and labels:
mice = conditions: Hayes and Palmer 1976, 1972
mouse = conditions: Hayes and Palmer, Experientia 1976

Row | SMILES | solubility in aqueous solutions | solubility in water | other results
1 | N[C@@H](Cc1c[nH]c2ccc(O)cc12)C(=O)O [5-hydroxytryptophan] | soluble |  | 
2 | [2H]O[2H] [Deuterium oxide] |  |  | effect on the period and entrainment of the light-dark (LD) cycle (mice): chronomutagenic effect; spontaneous locomotor activity (mouse): suppressed
3 | COc1ccc2[nH]cc(CCNC(C)=O)c2c1 [Melatonin] | soluble | soluble | 
4 | CSCC[C@H](N)C(=O)O [Methionine] |  | soluble | 
5 | NC[C@H](O)c1ccc(O)c(O)c1 [Norepinephrine] | freely soluble |  | 
6 | NCCc1c[nH]c2ccc(O)cc12 [Serotonin] | soluble |  | 
7 | NCCc1c[nH]c2ccccc12 [Tryptamine] | practically insoluble |  | 
8 | N[C@@H](Cc1c[nH]c2ccccc12)C(=O)O [Tryptophan] |  | soluble | 
